A word on the IC50: it is the concentration that inhibits the measured activity by half.

Consider five molecules from article PMC10363080, “Modulatory Effect of Pyrus pyrifolia Fruit and its Phenolics on Key Enzymes against Metabolic Syndrome: Bioassay-Guided Approach, HPLC Analysis, and In Silico Study” (Plant Foods for Human Nutrition (Dordrecht, Netherlands), 2023).

A short description of test [1]: Ferric reducing antioxidant power (FRAP) assay. Also on record: FRAP AA (%) antioxidant activity percentage: concentration or dose not given beside the values. As to conditions: for FRAP antioxidant activity: Trolox equivalent per gram of sample, mean ± SD, n=3; for FRAP AA (%) antioxidant activity percentage: compared to ascorbic acid (=100). As for the experimental part: all of analytical grade. An electrothermal 9100 (UK) was used for the determination of melting points (uncorrected). A Jenway model 6800 spectrophotometer was utilized for recording UV spectra. A Tecan, microplate reader, ((Infinite F50, Switzerland)) was used to measure the absorbances. A Bruker NMR system was used for 1H-NMR (400 MHz) and 13C-NMR (100 MHz).
The NMR spectra were determined in CD3OH and DMSO-d6. Chemical shifts are given in δ (ppm) relative to the internal standard TMS. Phenolic acids and flavonoids used in HPLC analysis as well as all other reagents for biological investigations were obtained from Sigma Chemical Company […]
Determination of the antioxidant activity
2,2`-Azino-bis(3-ethylbenzothiazoline-6-sulfonic acid) (ABTS), ferric reducing antioxidant power (FRAP), and oxygen radical absorbance capacity (ORAC) assays were performed according to the previously published procedures. Ascorbic acid was used as a reference antioxidant […]
drug. […]

For test [2], the target named is T1, porcine pancreatic lipase (Sus scrofa, UniProt P00591).
T1 construct: purchased Abnova
T1 sequence (P00591 1-450): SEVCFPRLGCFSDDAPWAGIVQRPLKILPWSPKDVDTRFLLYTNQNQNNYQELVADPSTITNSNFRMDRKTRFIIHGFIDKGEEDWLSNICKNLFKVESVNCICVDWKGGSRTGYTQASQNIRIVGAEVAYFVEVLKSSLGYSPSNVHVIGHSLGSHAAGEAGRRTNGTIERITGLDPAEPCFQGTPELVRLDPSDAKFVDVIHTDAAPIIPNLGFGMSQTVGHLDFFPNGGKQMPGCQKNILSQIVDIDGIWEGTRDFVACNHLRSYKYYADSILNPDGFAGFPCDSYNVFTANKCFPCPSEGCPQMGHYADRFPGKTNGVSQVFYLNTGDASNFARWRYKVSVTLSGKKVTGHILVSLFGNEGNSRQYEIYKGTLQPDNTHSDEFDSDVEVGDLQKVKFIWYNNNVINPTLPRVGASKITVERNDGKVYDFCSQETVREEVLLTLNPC
The test is described as follows: Pancreatic lipase inhibitory activity. Type of test: biochemical. As to conditions: isolated compounds, Table S7; read-out: Inhibition (IC50) Lipase. As for the experimental part:
(§1) Phenolic acids and flavonoids used in HPLC analysis as well as all other reagents for biological investigations were obtained from Sigma Chemical Company […]
(§2) Inhibitory activity against key enzymes related to metabolic syndrome (MS) All assays were performed in 96-well plates. Stock solutions of the extract (100 mg/mL), fractions (100 mg/mL), and isolated compounds (1000 µM) were prepared. Tested samples that exceeded […]
(§3) inhibitory concentration (IC50). The percentage of enzyme inhibition was calculated according to […]
(§4) % Inhibition = (A−B) − (C−D) x 100 […]
Pancreatic lipase inhibitory activity
The pancreatic lipase inhibitory activity was assessed using p-nitrophenyl dodecanoate (p-NPD) as substrate and porcine pancreatic lipase (Abnova, Taipei, Taiwan) which was described […]
previously. […] The tested samples were diluted in DMSO were incubated with 10 g L−1 PL (diluted in 0.05 mol L−1 Tris-HCl buffer pH 8.0, containing […]
in 0.5% TritonX 100) (m v−1) was added to initiate the reaction. The absorbances were measured

Another test concerns the target T2, Recombinant renin (Homo sapiens, UniProt P00797).
T2 construct: purchased BPS Bioscince
T2 sequence (P00797 67-406): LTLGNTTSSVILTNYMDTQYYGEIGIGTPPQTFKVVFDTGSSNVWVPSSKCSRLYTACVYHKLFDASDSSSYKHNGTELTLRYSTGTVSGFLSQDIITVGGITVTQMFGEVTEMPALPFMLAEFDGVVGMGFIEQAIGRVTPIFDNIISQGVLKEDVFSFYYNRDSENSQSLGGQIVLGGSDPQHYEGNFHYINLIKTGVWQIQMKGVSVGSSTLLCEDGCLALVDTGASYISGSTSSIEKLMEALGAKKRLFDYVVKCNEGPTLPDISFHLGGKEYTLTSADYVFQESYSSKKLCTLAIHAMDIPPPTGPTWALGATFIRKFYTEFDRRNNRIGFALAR
The test is described as follows: Renin inhibitory activity (renin-inhibitor screening assay kit). Type of test: biochemical. To be noted: isolated compounds, Table S7; read-out: Inhibition (IC50) Renin (converted). As for the experimental part: all of analytical grade. […]
as §1, §2, §3, §4
Renin inhibitory activity
The renin inhibitory activity was examined according to a previously described method using renin-inhibitor screening assay kit (BPS Bioscince, San Diego, CA, USA) and quinapril as a reference drug. Recombinant renin enzyme (50 μL) was dissolved in 50-mM Tris-HCl buffer (pH 8.0) and 100-mM NaCl (assay buffer) and stored at –80°C for further analysis. Twenty μL of renin substrate (A500 μM in DMSO), 150 μL of assay buffer, and 10 μL of each sample were used to prepare test solutions (10mg/ml in methanol). The blank samples were made using 10 μL of the sample, 20 μL of the substrate, and 160 μL of assay buffer. The positive control samples were created using 10 μL of methanol, 20 μL of substrate, and 150 μL of assay buffer. The positive control and tested samples were combined with 10 μL of the renin solution for the assay in order to catalyze the reaction. After that, the reaction mixture was incubated for 45 minutes at 37 °C.
The fluorescence generated at the 340 nm excitation and 490 nm emission wavelengths was measured using a microplate reader.
Xanthine oxidase (XO) inhibitory activity
Xanthine oxidase (XO) inhibitory potential was carried out according to a previous designed procedure using xanthine oxidase (XO, EC 1.17.3.2; Biovision, USA). Allopurinol was applied as a reference drug. Immediately prior to use, a mixture was made up of 50 μL of sample solution, 35 μL of phosphate buffer (70 mM, pH = 7.5), and 30 μL of new enzyme solution (0.01 units/mL in the same buffer). The reaction was started by adding 60 μL of the substrate solution (150 μM xanthine in the same buffer) following a pre-incubation at 25 °C for 15 minutes. After that, the mixture was incubated at 25 °C for 30 min. After adding 25 μL of 1 M HCl to terminate the reaction, the absorbance was measured at 290 nm with a microplate reader as previously

On to `C[C@@H]1O[C@@H](OC[C@H]2O[C@@H](Oc3c(-c4ccc(O)c(O)c4)oc4cc(O)cc(O)c4c3=O)[C@H](O)[C@@H](O)[C@@H]2O)[C@H](O)[C@H](O)[C@H]1O` [P1, rutin], for which, in test [1], the FRAP antioxidant activity is 99.28 ±0.98 μM TE/g and the “FRAP AA (%) antioxidant activity percentage” value stood at 63.96%. Further, the IC50 in test [2] came to 0.98 ± 0.67 µM. In addition, the IC50 on Recombinant renin is 40.8 ± 1.3 µM.

Take `O=c1c(O[C@@H]2O[C@H](CO)[C@@H](O)[C@H](O)[C@H]2O)c(-c2ccc(O)c(O)c2)oc2cc(O)cc(O)c12` [P2, isoquercitrin]: in test [1], the FRAP antioxidant activity is 137.27±0.53 μM TE/g and the “FRAP AA (%) antioxidant activity percentage” value was 88.44%. Further, the IC50 in test [2] is 0.57 ± 0.03 µM. At Recombinant renin, the IC50 was 24.8 ± 1.3 µM.

Consider `COc1cc(-c2oc3cc(O)cc(O)c3c(=O)c2O[C@@H]2O[C@H](CO)[C@@H](O)[C@H](O)[C@H]2O)ccc1O` [P3, isorhamnetin-3-O-β-D-glucopyranoside], for which, in test [1], the FRAP antioxidant activity is 125.08±0.72 μM TE/g and the “FRAP AA (%) antioxidant activity percentage” value was 80.58%. For the same molecule, the IC50 in test [2] worked out at 0.78 ± 0.75 µM. The concentration for half-maximal inhibition (IC50) at Recombinant renin was 34.8 ± 0.79 µM.

For the molecule `O=C(/C=C/c1ccc(O)c(O)c1)O[C@@H]1C[C@](O)(C(=O)O)C[C@@H](O)[C@H]1O` [P4, chlorogenic acid], the figures for the IC50 (in test [2]; on Recombinant renin) were 1.31 ± 0.29 µM and 47.8 ± 0.25 µM, respectively.

Turning to `O=C(O)/C=C/c1ccccc1` [P6, cinnamic acid], the FRAP antioxidant activity in test [1] is on record as 141.26±0.91 μM TE/g; in test [1] (listed as Cinnamic acid (P6)), 141.26 ± 0.91 μM TE/g. Moreover, the “FRAP AA (%) antioxidant activity percentage” value in test [1] was 91.01%. Moreover, the half-maximal inhibitory concentration (IC50) was 0.35 ± 0.52 µM in test [2] and 20.7 ± 0.8 µM at Recombinant renin.
